Converted amounts (≈) assume the structure as drawn.
What was measured:
HeLa = experiment: Cytotoxicity against HeLa cells assessed as alteration in morphology after 3 days; type: functional, cell-based; details: Homo sapiens, 72 h
Human alphaherpesvirus 2 [1] = type: functional, organism-based; details: Human alphaherpesvirus 2, Lyons, HEL
Human alphaherpesvirus 2 [2] = type: functional, organism-based; details: Human alphaherpesvirus 2, G, HEL
Human alphaherpesvirus 3 [3] = type: functional, organism-based; details: Human alphaherpesvirus 3, OKA, HEL
Human alphaherpesvirus 3 [4] = type: functional, organism-based; details: Human alphaherpesvirus 3, 07-1, HEL
Human betaherpesvirus 5 [5] = type: functional, organism-based; details: Human betaherpesvirus 5, AD169, HEL
Human betaherpesvirus 5 [6] = type: functional, organism-based; details: Human betaherpesvirus 5, Davis, HEL
Human adenovirus 2 = type: functional, organism-based; details: Human mastadenovirus C, HEL
HEL [7] = experiment: Cytotoxicity against HEL cells assessed as alteration in morphology after 3 days; type: functional; details: Homo sapiens, 72 h
[8] = Cytotoxicity against HSB2 cells assessed as alteration in morphology after 3 days; type: functional, Homo sapiens, CCRF-HSB-2
MOLT-3 = experiment: Cytotoxicity against MOLT3 cells assessed as alteration in morphology after 3 days; type: functional, Homo sapiens
HEL [9] = experiment: Cytotoxicity against HEL cells assessed as cell growth after 3 days; type: functional, Homo sapiens
[10] = test system: Human immunodeficiency virus 1; type: functional, organism-based; details: Human immunodeficiency virus 1, 3B, CCRF-CEM, 96 h
[11] = test system: Human immunodeficiency virus 2; type: functional, organism-based; details: Human immunodeficiency virus 2, ROD, CCRF-CEM, 96 h
Coxsackievirus B4 [12] = type: functional, organism-based; details: Enterovirus B, HeLa
Coxsackievirus B4 [13] = type: functional, organism-based; details: Enterovirus B, Vero
[14] = test system: Respiratory syncytial virus; type: functional, organism-based; details: human respiratory syncytial virus, HeLa
Human respirovirus 3 = experiment: Antiviral activity against Parainfluenza 3 in Vero cells reduction of virus-induced cytopathogenicity after 4 days; type: functional, organism-based; details: Human respirovirus 3, Vero, 96 h
[15] = test system: Mammalian orthoreovirus 1; experiment: Antiviral activity against Reovirus 1 in Vero cells reduction of virus-induced cytopathogenicity after 4 days; type: functional, organism-based; details: Mammalian orthoreovirus 1, Vero, 96 h
Sindbis virus = experiment: Antiviral activity against Sindbis virus in Vero cells reduction of virus-induced cytopathogenicity after 4 days; type: functional, organism-based; details: 96 h
Punta Toro virus = experiment: Antiviral activity against Punta Toro virus in Vero cells reduction of virus-induced cytopathogenicity after 4 days; type: functional, organism-based; details: 96 h
Vero = experiment: (§1) Cytotoxicity against Vero cells assessed as alteration in morphology after 3 days; type: cell-based, Chlorocebus sabaeus; details: Chlorocebus sabaeus, Vero, 72 h
[16] = Cytotoxicity against C3H cells assessed as alteration in morphology after 3 days; type: cell-based, Mus musculus; details: for MCC at 72 h: mouse, C3H cells
CCRF-CEM = experiment: Cytotoxicity against CEM cells assessed as cell growth after 3 days; type: functional; details: Homo sapiens, 72 h
[17] = test system: Vesicular stomatitis virus; experiment: microbe, parasite or virus in culture; details: HEL
[18] = test system: Vesicular stomatitis virus; experiment: microbe, parasite or virus in culture; details: HeLa
[19] = test system: Moloney murine sarcoma virus; details: C3H
[20] = as §1; type: cell-based, Chlorocebus sabaeus; details: chlorocebus sabaeus, Vero cells
[21] = Homo sapiens, CCRF-HSB-2, 72 h, read-out: MCC
[22] = Homo sapiens, MOLT-3, 72 h, read-out: MCC
[23] = Homo sapiens, HEL, 72 h, read-out: CC50

SMILES	EC50 (Human alphaherpesvirus 2 [1]) [µg/mL]	EC50 (Human alphaherpesvirus 2 [2]) [µg/mL]	EC50 (Human alphaherpesvirus 3 [3]) [µg/mL]	EC50 (Human alphaherpesvirus 3 [4]) [µg/mL]	EC50 (Human betaherpesvirus 5 [5]) [µg/mL]	EC50 (Human betaherpesvirus 5 [6]) [µg/mL]	MCC (HEL [7]) [µg/mL]	CC50 (HEL [9]; [23]) [µg/mL]	EC50 (Coxsackievirus B4 [12]) [µg/mL]	EC50 (Coxsackievirus B4 [13]) [µg/mL]	EC50 [14] [µg/mL]	EC50 (Human respirovirus 3) [µg/mL]	EC50 [15] [µg/mL]	EC50 (Sindbis virus) [µg/mL]	EC50 (Punta Toro virus) [µg/mL]	EC50 [17] [µg/mL]	EC50 [18] [µg/mL]	EC50 [19] [µg/mL]	MCC (HeLa) [µg/mL]	MCC at 72 h [20] [µg/mL]	further results
Nc1ncn(C[C@@H](CO)OCP(=O)(O)O)c(=O)n1	0.24 (≈ 0.857 µM)	0.45 (≈ 1.61 µM)	0.06 (≈ 0.214 µM)	0.039 (≈ 0.139 µM)	0.23 (≈ 0.821 µM)	0.082 (≈ 0.293 µM)	> 100	225 (≈ 803 µM)	> 100	> 100	> 100	> 100	> 100	> 100	> 100	> 100	> 100	≥ 4	–	–	EC50 (HeLa): > 100 µg/mL; EC50 (Human adenovirus 2): 0.71 µg/mL (≈ 2.53 µM); MCC [8, 21]: 16 µg/mL; MCC (MOLT-3; [22]): 16 µg/mL; EC50 [10]: 20 µg/mL (≈ 71.4 µM); EC50 [11]: 20 µg/mL (≈ 71.4 µM); EC50 (Vero): > 100 µg/mL; EC50 ([16]; Mus musculus, C3H, 72 h): > 20 µg/mL; CC50 (CCRF-CEM): 30 µg/mL (≈ 107 µM)
Nc1ncn(C[C@H]2COP(=O)(O)CO2)c(=O)n1	0.48 (≈ 1.83 µM)	0.61 (≈ 2.33 µM)	0.12 (≈ 0.458 µM)	0.04 (≈ 0.153 µM)	0.07 (≈ 0.267 µM)	0.06 (≈ 0.229 µM)	> 100	> 100	> 200	> 200	> 200	> 200	> 200	> 200	> 200	> 200	> 200	> 20	> 200	> 200	MCC [8, 21]: 200 µg/mL; MCC (MOLT-3; [22]): 33 µg/mL; MCC at 72 h [16]: 100 µg/mL
CCCCCCCCCCCCCCCCOCCOP1(=O)CO[C@@H](Cn2cnc(N)nc2=O)CO1 (stereo not given in full)	0.004 (≈ 0.00754 µM)	0.082 (≈ 0.155 µM)	0.0014 (≈ 0.00264 µM)	0.0008 (≈ 0.00151 µM)	0.00038 (≈ 0.000716 µM)	0.00014 (≈ 0.000264 µM)	16	–	> 3.2	16 (≈ 30.2 µM)	> 3.2	16 (≈ 30.2 µM)	16 (≈ 30.2 µM)	16 (≈ 30.2 µM)	16 (≈ 30.2 µM)	> 3.2	> 3.2	> 4	16	80	EC50 (Human adenovirus 2): < 0.512 µg/mL; MCC [8]: 1.6 µg/mL; MCC (MOLT-3): 0.56 µg/mL; CC50 (HEL [9]): 6.4 µg/mL (≈ 12.1 µM); EC50 [10]: > 0.8 µg/mL; EC50 [11]: > 0.8 µg/mL; MCC at 72 h [16]: 20 µg/mL; CC50 (CCRF-CEM): 2 µg/mL (≈ 3.77 µM)
CC(C)(C)C(=O)OCOP1(=O)CO[C@@H](Cn2cnc(N)nc2=O)CO1 (stereo not given in full)	0.24 (≈ 0.638 µM)	0.32 (≈ 0.85 µM)	0.11 (≈ 0.292 µM)	0.02 (≈ 0.0531 µM)	0.061 (≈ 0.162 µM)	0.067 (≈ 0.178 µM)	> 40	14 (≈ 37.2 µM)	> 20	> 100	> 20	> 100	> 100	> 100	> 100	> 20	> 20	> 20	100	> 100	EC50 (Human adenovirus 2): 0.069 µg/mL (≈ 0.183 µM); MCC [8, 21]: 4 µg/mL; MCC (MOLT-3; [22]): ≥ 4 µg/mL; EC50 [10]: > 20 µg/mL; EC50 [11]: > 20 µg/mL; MCC at 72 h [16]: 100 µg/mL; CC50 (CCRF-CEM): 18 µg/mL (≈ 47.8 µM)
Nc1ncnc2c1ncn2C[C@H](O)CO [(S)-DHPA]	–	–	–	–	–	–	–	–	> 200	> 200	> 200	> 200	200 (≈ 956 µM)	> 200	> 200	–	120 (≈ 574 µM)	–	> 200	> 200	–
Nc1nc2c(ncn2COCCO)c(=O)[nH]1 [ACYCLOVIR]	–	0.05 (≈ 0.222 µM)	–	–	–	–	> 100	212 (≈ 941 µM)	–	–	–	–	–	–	–	–	–	–	–	–	–
O=c1[nH]c(=O)n([C@H]2C[C@H](O)[C@@H](CO)O2)cc1/C=C/Br [BRIVUDINE]	8.8 (≈ 26.4 µM)	9 (≈ 27 µM)	0.0022 (≈ 0.0066 µM)	≥ 44.4	–	–	> 100	212 (≈ 636 µM)	> 200	> 200	> 200	> 200	> 200	> 200	> 200	200 (≈ 600 µM)	200 (≈ 600 µM)	–	> 200	> 200	–
Nc1ccn(C[C@@H](CO)OCP(=O)(O)O)c(=O)n1.O.O [CIDOFOVIR]	0.42	0.65	0.09	0.03	0.15	0.18	> 31.5	76	> 31.5	> 31.5	> 31.5	> 31.5	> 31.5	> 31.5	> 31.5	> 31.5	> 31.5	> 4	> 31.5	> 31.5	EC50 (Human adenovirus 2): 2 µg/mL; MCC [8, 21]: 60 µg/mL; EC50 [10]: > 20 µg/mL; EC50 [11]: > 20 µg/mL; MCC at 72 h [16]: 20 µg/mL
Nc1ccn(C[C@H]2COP(=O)(O)CO2)c(=O)n1 [CYCLIC CIDOFOVIR]	0.45 (≈ 1.72 µM)	0.76 (≈ 2.91 µM)	0.12 (≈ 0.459 µM)	0.04 (≈ 0.153 µM)	0.21 (≈ 0.804 µM)	0.22 (≈ 0.842 µM)	> 100	≥ 76	> 200	> 200	> 200	> 200	> 200	> 200	> 200	> 200	> 200	> 20	> 200	> 200	EC50 [10]: > 20 µg/mL; EC50 [11]: > 20 µg/mL; MCC at 72 h [16]: 100 µg/mL
Nc1nc2c(ncn2COC(CO)CO)c(=O)[nH]1 [GANCICLOVIR]	0.0014 (≈ 0.00549 µM)	0.0036 (≈ 0.0141 µM)	–	–	1.68 (≈ 6.58 µM)	1.29 (≈ 5.05 µM)	> 100	122 (≈ 478 µM)	–	–	–	–	–	–	–	–	–	–	–	–	–
NC(=O)c1ncn([C@@H]2O[C@H](CO)[C@@H](O)[C@H]2O)n1 [RIBAVIRIN]	–	–	–	–	–	–	> 200	–	90 (≈ 369 µM)	> 200	24 (≈ 98.3 µM)	120 (≈ 491 µM)	200 (≈ 819 µM)	120 (≈ 491 µM)	40 (≈ 164 µM)	120 (≈ 491 µM)	24 (≈ 98.3 µM)	–	> 200	> 200	–

— ChEMBL document CHEMBL1138246, “Ester prodrugs of cyclic 1-(S)-[3-hydroxy-2-(phosphonomethoxy)propyl]-5-azacytosine: synthesis and antiviral activity” (J Med Chem, 2007)
